{
  "source": "patent US8067036B2",
  "about": "“Gnetum extract” (Hosoda SHC Inc., priority 2004, dated 2011)",
  "key": {"[1]": {"test": "DPPH radical scavenging (antioxidative action) test", "format": "biochemical", "details": "rank order among Gnetin C, Gnemonocide A, D", "description": "After 6 hours, decreases of absorbance (absorbance difference) at 517 nm of these reaction solutions were measured."}, "[2]": {"test_system": "hay bacillus, Escherichia coli, sake yeast, penicillium", "test": "Antimicrobial action/effect (overall statement)", "format": "cell-based", "details": "rank order among Gnetin C, Gnemonocide A, D"}},
  "data": [
    {"substance": "Gnemonocide C", "values": [
      {"measurement": "order of scavenging radical action (antioxidative effect) to DPPH", "setting": "[1]", "value": "Gnetin C>Gnemonocide C≈Gnemonocide D>Gnemonocide A"},
      {"measurement": "order of antimicrobial action of the identified ingredients", "setting": "[2]", "value": "Gnetin C>Gnemonocide C≈Gnemonocide D"}
    ]},
    {"substance": "Gnemonocide D", "values": [
      {"measurement": "order of scavenging radical action (antioxidative effect) to DPPH", "setting": "[1]", "value": "Gnetin C>Gnemonocide C≈Gnemonocide D>Gnemonocide A"},
      {"measurement": "order of antimicrobial action of the identified ingredients", "setting": "[2]", "value": "Gnetin C>Gnemonocide C≈Gnemonocide D"}
    ]},
    {"substance": "Gnemonocide A", "values": [
      {"measurement": "order of scavenging radical action (antioxidative effect) to DPPH", "setting": "[1]", "value": "Gnetin C>Gnemonocide C≈Gnemonocide D>Gnemonocide A"},
      {"measurement": "order of antimicrobial action of the identified ingredients", "setting": "[2]", "value": "does not show the antimicrobial action"}
    ]}
  ]
}
